In patent US6174875A, “Benzoquinoid ansamycins for the treatment of cardiac arrest and stroke” (priority 1999, dated 2001):

Experiments:
[1] = test system: heat shock proteins in rat cardiomyocytes; conditions: cited from earlier work; for overexpression of heat shock proteins in cardiomyocytes: pretreatment
[2] = test system: myogenic H9c2 cells and cardiomyocytes; conditions: pretreatment; cited from earlier work
hsp70 in fibroblasts = conditions: cited from earlier work
HT22 cells [3] = assay: MTT viability assay of glutamate-treated HT22 cells; assay type: cell-based, mouse
Description: (§1) HT22 cells were seeded on 60 mm tissue culture dishes at 300,000 cells per dish and grown overnight. Cells were then incubated in the presence of 5 mM glutamate for 20 hours. […] In order to provide a more accurate assessment of glutamate-induced oxidative toxicity, the ability of HT22 cells to metabolize 3-(4,5-[…]-2-yl)-2,5-diphenyl tetrazolium bromide (MTT) was assayed. The reduction of this dye by viable cells can easily be detected spectrophotometrically as described by Mosman (1983) J. Immunol. Methods 65:55 with reduced HT22 cell viability directly correlated with decreased metabolism of MTT (Shubert et al. (1992) Proc. Natl. Acad. Sci. USA 89:8264). HT22 cells were seeded on 96-well plates at 5,000 cells per well and grown for 12 hours. Cells were then treated with 2 mM, 5 mM or 10 mM concentrations of glutamate. […] After a total incubation period of 20 hours, cell viability was measured using an MTT assay as described by Li et al. (1997) Neuron 19:453. Briefly, 10 μl of MTT solution (5 mg/ml) was added to each well and cells incubated for an additional 4 hours. 100 μl of solubilization solution (50% dimethylformamide and 20% SDS, pH 4.8) was added and left on the cells 5 overnight, after which light absorption at 570 nm was measured. Values (% Viability) represent the average of quadruplicate (FIG. 1) or triplicate (FIG. 2) determinations±S.D. Similar results were obtained in a replicate experiment. Cell viability was expressed relative to control cells treated with GA or Herb alone.

[4] = test system: heat shock proteins in myogenic H9c2 cells; conditions: cited from earlier work; for overexpression of heat shock proteins in myogenic H9c2 cells: pretreatment
cultured neurons = conditions: cited from earlier work
in vivo = conditions: mouse, iv, 60 mg/kg
Description: 17-allylaminogeldanamycin (17-AAG) (60 mg/kg) was administered to CD2F1 mice by intravenous (iv) injection. Brain levels of 17-AAG were determined at various time points after administration.

HT22 cells [5] = assay: Glutamate-induced cytotoxicity in HT22 cells by phase contrast/light microscopy and trypan blue staining; assay type: cell-based, mouse
Description: as §1, with “overnight.” for “overnight. Cells were then incubated in the presence of 5 mM glutamate for 20 hours.”

[6] = test system: glutathione levels in HT22 cells; assay: Cellular glutathione (GSH) levels in HT22 cells (monochlorobimane fluorescence); assay type: cell-based, mouse; conditions: 0.1 μg/ml GA, 5 mM glutamate, 2-8 hours (FIG. 3)
Description: Cellular glutathione (GSH) levels were measured in HT22 cells as described previously by Kane (1993) Science 262:1274. Briefly, HT22 cells were seeded onto 96-well plates at 20,000 cells per well and grown overnight. […] Monochlorobimane was added to 40 μM and following an additional 30 minutes of incubation, fluorescence at 460 nm in response to excitation at 395 mn was measured using a Perkin Elmer fluorescence plate reader. Values represent the average of triplicate experiments±S.D.

hsp70 in HT22 cells = assay: Western blot of inducible hsp70 expression in HT22 cells; assay type: cell-based, mouse
Description: (§2) Cells were harvested and lysed by sonication in 0.25 M Tris-HCl, pH 7.5 and lysates clarified by centrifugation at 14,000 rpm for 10 minutes at 4 ° C. Equivalent amounts of lysate protein (5 μg) were used for Western blot analysis as described by Xiao et al. (1997) Mol. Endocrinol. 11: 1365. The inducible form of the 70 kDa heat shock protein, hsp70, was uniquely detected using the SPA-810 monoclonal antibody (StressGen). GA induction of hsp70 was evident within 3 hours of GA treatment, was maximal upon 9 hours of GA treatment, and persisted for at least 12 hours in the presence of GA.

hsp70 in rat brain = assay: Western blot of hsp70 in rat hippocampus after intracranial ventricular injection; assay type: in vivo; conditions: 20 μg geldanamycin icv, 12 or 24 hours (FIGS. 5A, 5B)
Description: (§3) Geldanamycin was delivered to rat brain by intracranial ventricular (icv) injection as follows. Rats were stereotaxically fitted with 4 mm×22 gauge guide cannulae directed at the lateral ventricle (AP-2.0, ML+2.0). […] The injector was removed and replaced with a stylet. At 12 or 24 hours after injection, hippocampi were isolated from which whole cell extracts were prepared and subjected to Western blot analysis to visualize raf- 1 and actin, or hsp70. Negative and positive control protein samples for hsp70 were prepared from untreated or heat shocked HT22 cells. Western blot analysis is depicted in FIGS. 5A and 5B in which the (-) and (+) lanes refer to the negative and positive control samples.

[7] = test system: hsp90-associated signaling molecules; conditions: other cultured cells; cited from earlier work
raf-1 in rat brain = assay: Western blot of raf-1 in rat hippocampus after intracranial ventricular injection; assay type: in vivo; conditions: 20 μg geldanamycin icv, 12 or 24 hours (FIGS. 5A, 5B)
Description: as §3

HT22 cells [8] = assay: Internucleosomal DNA cleavage (apoptosis) in HT22 cells; assay type: cell-based, mouse
Description: HT22 cells were treated with 5 mM glutamate (Glu) for 20 hours. […] Controls included HT22 cells not treated with Glu or GA and cells treated with GA alone.

[9] = test system: Male Sprague-Dawley rats (asphyxial cardiac arrest); assay type: in vivo, rat
Text: In rats, asphyxia produces circulatory arrest that can be reversed by mechanical ventilation and external chest compression (Katz et al. (1995) J. Cereb. Blood Flow Metab. 15:1032). […] Meaningful behavioral scores that predictable detect neurological deficits which closely mimic the types of deficits observed in patients that recover from cardiac arrest have been developed. Animal protocols were approved by the Institutional Animal Care and Use Committee of the University of Pittsburgh. Male Sprague-Dawley rats weighing 318±17 gm (Harlan, Indianapolis, Ind.) were anesthetized with 0.8% halothane in oxygen, endotracheally intubated using a 14 gauge angiocath, and mechanically ventilated using a Harvard rodent ventilator (0.9 cc/kg, 40 respirations/min). Blood pressure and arterial blood gases are monitored via a femoral arterial catheter (PE-50 tubing, IntraMedic), and drugs administered via a femoral venous catheter (PE-50). Tympanic temperature was maintained at 36.9±0.2° C. by manipulating an overhead 100 W lamp. After chemical paralysis with 2 mg/kg vecuronium and reducing the fraction of inspired oxygen to 0.21 (room air) mechanical ventilation was discontinued at end-expiration. Cardiac arrest (mean arterial pressure <10 mmHg) reliably occurred within 180 seconds. […]

hsp90 in HT22 cells = assay: Western blot of steady state hsp90 levels in HT22 cells; assay type: cell-based, mouse; conditions: 0.1 μg/ml GA
Description: as §2

## COC1C=CC=C(C)C(=O)NC2=CC(=O)C=C(C2=O)C(OC)C(C)CC(OC)C(OC)C(C)C=C(C)C1OC(N)=O (stereo not drawn) [herbimycin A]
[1]
  induction of hsp70 expression in rat cardiomyocytes: induce hsp70 expression
  overexpression of heat shock proteins in cardiomyocytes: overexpression of heat shock proteins
[2]
  protection against simulated ischemia: conferred protection against simulated ischemia
hsp70 in fibroblasts
  induction of hsp70 expression in fibroblasts: induce hsp70 expression
HT22 cells [3]; 0.5 μg/ml herbimycin A (FIG. 2)
  protection from glutamate-induced oxidative toxicity (MTT viability): protected HT22 cells from the glutamate-induced oxidative toxicity
[4]
  induction of hsp70 expression in a myogenic cell line: induce hsp70 expression
  overexpression of heat shock proteins in myogenic H9c2 cells: overexpression of heat shock proteins

## vitamin E
Cultured neurons
  protection of cultured neurons from oxidative toxicity: protect cultured neurons from this form of toxicity

## C=CCNC1=C2CC(C)CC(OC)C(O)C(C)C=C(C)C(OC(N)=O)C(OC)C=CC=C(C)C(=O)NC(=CC1=O)C2=O (stereo not drawn) [17-AAG, 17-allylaminogeldanamycin]
In vivo
  concentration at 24 h: 100 ng/g

## COC1=C2C[C@@H](C)C[C@H](OC)[C@H](O)[C@@H](C)/C=C(\C)[C@H](OC(N)=O)[C@@H](OC)/C=C\C=C(/C)C(=O)NC(=CC1=O)C2=O [geldanamycin]
HT22 cells [5]; 0.1 μg/ml GA, 5 mM glutamate, GA added at same time or 1, 2 or 6 hours after glutamate
  protection from glutamate-induced oxidative toxicity (phase contrast): led to protection from glutamate-induced oxidative toxicity
HT22 cells [5]; GA alone
  HT22 cell growth rate, GA alone: appeared to reduce HT22 cell growth rate
HT22 cells [5]; GA alone, assessed after 24 hours
  cell death, GA alone: did not lead to cell death
[6]
  recovery of glutathione levels: did not lead to recovery of glutathione levels
hsp70 in HT22 cells; 0.1 μg/ml GA + 5 mM glutamate
  hsp70 induction by GA in the presence of glutamate: still able to induce hsp70
  time GA-induced hsp70 levels are maintained in the presence of glutamate: up to 12 hours
hsp70 in HT22 cells; 0.1 μg/ml GA, HT22 cells
  persistence of hsp70 induction in the presence of GA: at least 12 hours
  time at which GA induction of hsp70 was evident: ≤ 3 h
  time of maximal GA induction of hsp70: 9 h
hsp70 in HT22 cells; doses above 0.1 μg/ml, HT22 cells
  induction of hsp70 protein levels at higher doses of GA: not significantly enhanced at higher doses
hsp70 in HT22 cells; vs 60 minute 42° C. heat shock, 0.1 μg/ml GA
  induction of hsp70 compared with heat shock: as effective as a 60 minute 42 °C heat shock
hsp70 in rat brain
  expression of hsp70 in rat brain: increased expression of hsp70
[1]
  induction of hsp70 expression in rat cardiomyocytes: induce hsp70 expression
  overexpression of heat shock proteins in cardiomyocytes: overexpression of heat shock proteins
[2]
  protection against simulated ischemia: conferred protection against simulated ischemia
[7]
  degradation of hsp90-associated signaling molecules: selective degradation of hsp90-associated signaling molecules
raf-1 in rat brain
  expression of raf-1 proto-oncogene in rat brain: decreased expression of the raf-1 proto-oncogene
hsp70 in fibroblasts
  induction of hsp70 expression in fibroblasts: induce hsp70 expression
HT22 cells [3]; 0.1 μg/ml GA added after glutamate (FIG. 1)
  protection when GA is given following glutamate treatment: retained its capacity to protect HT22 cells from oxidative stress
HT22 cells [3]; 0.1 μg/ml GA, 10 mM glutamate, 20 h
  protection against glutamate cytotoxicity (MTT viability): less effective at this higher dose of glutamate
HT22 cells [3]; 0.1 μg/ml GA, 2 and 5 mM glutamate, 20 h (FIG. 1)
  protection against glutamate cytotoxicity (MTT viability): effective protection
HT22 cells [3]; 0.1 μg/ml GA, 2 or 5 mM glutamate
  time after glutamate exposure at which protection by GA was still apparent: 6 h
HT22 cells [8]; 0.1 μg/ml GA alone
  internucleosomal DNA cleavage, GA alone: not subjected to this type of characteristic genomic DNA cleavage
HT22 cells [8]; 0.1 μg/ml GA, 5 mM glutamate
  block of glutamate-induced internucleosomal DNA cleavage: able to block glutamate-induced internucleosomal DNA cleavage
[9]; GA 1.0 mg/kg iv after return of spontaneous circulation, n=5, scored at 24, 48, 72 hours, Kruskal-Wallace Chi-square=6.54, p<0.05 (FIG. 4)
  neurological deficit scores vs vehicle: lower in rats treated with GA (n=5) than in rats treated with vehicle
[9]; GA 1.0 mg/kg iv, rats
  physiological variables during the resuscitation phase vs vehicle: did not differ between groups
hsp90 in HT22 cells
  steady state levels of hsp90: not affected
[4]
  induction of hsp70 expression in a myogenic cell line: induce hsp70 expression
  overexpression of heat shock proteins in myogenic H9c2 cells: overexpression of heat shock proteins

## CC(=O)Oc1ccccc1C(=O)O [aspirin]
Cultured neurons
  protection of cultured neurons from oxidative toxicity: protect cultured neurons from this form of toxicity
